Experimental data taken from PubChem BioAssay AID1963424 (Molecular Pharmacology Branch, DTP, NCI, 2024).

Test system: 327498-153-R-J2-PDC complex spheroid growth, % test/control
Test: Anticancer human tumor 327498-153-R-J2-PDC patient-derived uterine carcinosarcoma cell line growth inhibition [Asc]
Conditions: for IC50: curve of first compound; for viability, T/C: stronger effect = lower value
Procedure, shortened: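 Stromal components (HUVEC and hMSC) are co-assembled with the cancer cells into multicellular spheroids. Drugs are then added singly or paired, at concentrations falling by half-log increments from a clinically achievable maximum, capped at 10 microM without known Cmax.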

[1] = second compound 0.01 µM, first compound 0.00949 µM
[2] = second compound 0.01 µM, first compound 0.03 µM
[3] = second compound 0.01 µM, first compound 0.0949 µM
[4] = second compound 0.01 µM, first compound 0.3 µM
[5] = second compound 0.01 µM, first compound 0.949 µM
[6] = second compound 0.01 µM, first compound 3 µM
[7] = second compound 0.0316 µM, first compound 0.00949 µM
[8] = second compound 0.0316 µM, first compound 0.03 µM
[9] = second compound 0.0316 µM, first compound 0.0949 µM
[10] = second compound 0.0316 µM, first compound 0.3 µM
[11] = second compound 0.0316 µM, first compound 0.949 µM
[12] = second compound 0.0316 µM, first compound 3 µM
[13] = second compound 0.1 µM, first compound 0.00949 µM
[14] = second compound 0.1 µM, first compound 0.03 µM
[15] = second compound 0.1 µM, first compound 0.0949 µM
[16] = second compound 0.1 µM, first compound 0.3 µM
[17] = second compound 0.1 µM, first compound 0.949 µM
[18] = second compound 0.1 µM, first compound 3 µM
[19] = second compound 0.316 µM, first compound 0.00949 µM
[20] = second compound 0.316 µM, first compound 0.03 µM
[21] = second compound 0.316 µM, first compound 0.0949 µM
[22] = second compound 0.316 µM, first compound 0.3 µM
[23] = second compound 0.316 µM, first compound 0.949 µM
[24] = second compound 0.316 µM, first compound 3 µM
[25] = second compound 1 µM, first compound 0.00949 µM
[26] = second compound 1 µM, first compound 0.03 µM
[27] = second compound 1 µM, first compound 0.0949 µM
[28] = second compound 1 µM, first compound 0.3 µM
[29] = second compound 1 µM, first compound 0.949 µM
[30] = second compound 1 µM, first compound 3 µM
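Also: spheroids exposed to compound for 7 days after 3 days of growth.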
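For viability, T/C in this document: 100% = DMSO vehicle control wells.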

Structure (SMILES) | IC50 (second compound 0.01 µM) [nM] | IC50 (second compound 0.0316 µM) [nM] | IC50 (second compound 0.1 µM) [nM] | IC50 (second compound 0.316 µM) [nM] | IC50 (second compound 1 µM) [nM] | viability, T/C [1] [%] | viability, T/C [2] [%] | viability, T/C [3] [%] | viability, T/C [4] [%] | viability, T/C [5] [%] | viability, T/C [6] [%] | viability, T/C [7] [%] | viability, T/C [8] [%] | viability, T/C [9] [%] | viability, T/C [10] [%] | viability, T/C [11] [%] | viability, T/C [12] [%] | viability, T/C [13] [%] | viability, T/C [14] [%] | viability, T/C [15] [%] | other results
CCN1C(C(=O)NC23CCC(C(=O)O)(CC2)CC3)C(c2cccc(Cl)c2F)C2(C(=O)Nc3cc(Cl)ccc32)C12CCCCC2 (stereo not given) + CNC(C)C(=O)NC1CN(S(=O)(=O)c2cccc(S(=O)(=O)N3CCC4CCC(C(=O)NC(c5ccccc5)c5ccccc5)N4C(=O)C(NC(=O)C(C)NC)C3)c2)CCC2CCC(C(=O)NC(c3ccccc3)c3ccccc3)N2C1=O | 193 | 151 | 173 | 173 | 150 | 88.1 | 90.9 | 72.2 | 35.9 | 8.7 | 3.12 | 90.8 | 83.9 | 62 | 32.4 | 7.36 | 1.14 | 97.8 | 87.8 | 67.2 | viability, T/C [16]: 35.1%; viability, T/C [17]: 9.87%; viability, T/C [18]: 1.93%; viability, T/C [19]: 101%; viability, T/C [20]: 89.7%; viability, T/C [21]: 67.1%; viability, T/C [22]: 35.8%; viability, T/C [23]: 9.28%; viability, T/C [24]: 5.81%; viability, T/C [25]: 100%; viability, T/C [26]: 82.1%; viability, T/C [27]: 64.8%; viability, T/C [28]: 32.3%; viability, T/C [29]: 4.68%; viability, T/C [30]: 1.29%
Cc1nc(N2CCC3(CC2)COC(C)C3N)c(CO)nc1Sc1ccnc(N)c1Cl (stereo not given) + CNC(C)C(=O)NC1CN(S(=O)(=O)c2cccc(S(=O)(=O)N3CCC4CCC(C(=O)NC(c5ccccc5)c5ccccc5)N4C(=O)C(NC(=O)C(C)NC)C3)c2)CCC2CCC(C(=O)NC(c3ccccc3)c3ccccc3)N2C1=O | > 3000 | 1550 | > 3000 | > 3000 | > 3000 | 102 | 101 | 82.3 | 71.6 | 66.8 | 48.7 | 95.7 | 90.2 | 81.6 | 72.2 | 53.1 | 44 | 97.4 | 92.7 | 87.8 | viability, T/C [16]: 68.5%; viability, T/C [17]: 56.2%; viability, T/C [18]: 59.9%; viability, T/C [19]: 96.1%; viability, T/C [20]: 93.5%; viability, T/C [21]: 91%; viability, T/C [22]: 75.8%; viability, T/C [23]: 63.7%; viability, T/C [24]: 50%; viability, T/C [25]: 94.3%; viability, T/C [26]: 87.7%; viability, T/C [27]: 78.6%; viability, T/C [28]: 72.3%; viability, T/C [29]: 59.8%; viability, T/C [30]: 52.1%
